Assay results published in patent US10287305B2, “Substituted piperidine compound and use thereof” (Takeda Pharmaceutical Company Limited, priority 2016, dated 2019).

Target: human orexin type 2 receptor (hOX2R) (Homo sapiens (Human), UniProt O43614)
Assay: Measurement of orexin type 2 receptor agonist activity (Experimental Example 2-1, FLIPR TETRA, intracellular Ca2+)
Assay type: cell-based
Settings: CHO dhfr- cells expressing hOX2R, FLIPR TETRA, Fluo-4AM; for Emax: read-out: Emax (%)

Sequence of human orexin type 2 receptor (hOX2R) (O43614 whole entry): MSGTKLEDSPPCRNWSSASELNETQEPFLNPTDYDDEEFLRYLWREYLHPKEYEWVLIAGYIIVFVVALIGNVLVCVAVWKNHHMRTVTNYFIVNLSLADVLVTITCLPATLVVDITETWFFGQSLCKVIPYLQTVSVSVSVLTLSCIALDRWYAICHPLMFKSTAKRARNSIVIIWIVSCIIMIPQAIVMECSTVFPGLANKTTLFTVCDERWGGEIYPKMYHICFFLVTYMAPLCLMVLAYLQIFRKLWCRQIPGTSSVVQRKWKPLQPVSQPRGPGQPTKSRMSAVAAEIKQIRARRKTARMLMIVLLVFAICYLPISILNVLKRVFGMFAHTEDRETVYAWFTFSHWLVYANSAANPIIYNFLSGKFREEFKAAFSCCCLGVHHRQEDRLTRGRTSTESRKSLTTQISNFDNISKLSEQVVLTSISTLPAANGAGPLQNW

Compound | EC50 [nM] | Emax [%]
CS(=O)(=O)N[C@H]1CCCN(C(=O)Cc2nccs2)[C@H]1CO[C@H]1CC[C@@H](c2ccccc2)CC1 (relative stereo) [Example 157, N-(cis-2-(((cis-4-phenylcyclohexyl)oxy)methyl)-1-(1,3-thiazol-2-ylacetyl)piperidin-3-yl)methanesulfonamide] | 140 | 91
CCNC(=O)N1CCC[C@H](NS(C)(=O)=O)[C@@H]1CO[C@H]1CC[C@@H](c2ccn(C)n2)CC1 (relative stereo) [Example 159, cis-N-ethyl-2-(((cis-4-(1-methyl-1H-pyrazol-3-yl)cyclohexyl)oxy)methyl)-3-((methylsulfonyl)amino)piperidine-1-carboxamide] | 140 | 96
COC(=O)N1CCC[C@H](NS(C)(=O)=O)[C@@H]1COC1CCN(c2ccccc2C(F)(F)F)CC1 (relative stereo) [Example 165, methyl cis-3-((methylsulfonyl)amino)-2-(((1-(2-(trifluoromethyl)phenyl)piperidin-4-yl)oxy)methyl)piperidine-1-carboxylate] | 3800 | 80
CC(=O)C(=O)N1CCC[C@H](NS(C)(=O)=O)[C@@H]1CO[C@H]1CC[C@@H](c2ccccc2)CC1 (relative stereo) [Example 177, N-(cis-2-(((cis-4-phenylcyclohexyl)oxy)methyl)-1-pyruvoylpiperidin-3-yl)methanesulfonamide] | 190 | 96
CS(=O)(=O)N[C@H]1CCCN(C(=O)NCC#N)[C@H]1CO[C@H]1CC[C@@H](c2ccccc2)CC1 (relative stereo) [Example 179, cis-N-(cyanomethyl)-3-((methylsulfonyl)amino)-2-(((cis-4-phenylcyclohexyl)oxy)methyl)piperidine-1-carboxamide] | 0.31 | 100
COC(=O)N1CCC[C@H](NS(C)(=O)=O)[C@@H]1COC1CCN(c2c(Cl)cccc2Cl)CC1 (relative stereo) [Example 186, methyl cis-2-(((1-(2,6-dichlorophenyl)piperidin-4-yl)oxy)methyl)-3-((methylsulfonyl)amino)piperidine-1-carboxylate] | 3300 | 86
CCNC(=O)N1CCC[C@H](NS(C)(=O)=O)[C@@H]1CO[C@H]1C[C@@H](c2ccc(C)cc2)C1 (relative stereo) [Example 192, cis-N-ethyl-2-(((cis-3-(4-methylphenyl)cyclobutyl)oxy)methyl)-3-((methylsulfonyl)amino)piperidine-1-carboxamide] | 150 | 108
COC(=O)N1CCC[C@H](NS(C)(=O)=O)[C@@H]1CO[C@H]1C[C@@H](c2ccccc2)C1 (relative stereo) [Example 194, methyl cis-3-((methylsulfonyl)amino)-2-(((cis-3-phenylcyclobutyl)oxy)methyl)piperidine-1-carboxylate] |  | 81
CCNC(=O)N1CCC[C@H](NS(C)(=O)=O)[C@@H]1COC1CCN(c2ccccc2F)CC1 (relative stereo) [Example 195, cis-N-ethyl-2-(((1-(2-fluorophenyl)piperidin-4-yl)oxy)methyl)-3-((methylsulfonyl)amino)piperidine-1-carboxamide] | 250 | 102
CS(=O)(=O)N[C@H]1CCCN(C(=O)C2CC2)[C@H]1COC1CCN(c2ncccn2)CC1 (relative stereo) [Example 196, N-(cis-1-(cyclopropylcarbonyl)-2-(((1-(pyrimidin-2-yl)piperidin-4-yl)oxy)methyl)piperidin-3-yl)methanesulfonamide] | 30 | 104
CS(=O)(=O)N[C@H]1CCCN(C(=O)C2CC2)[C@H]1CO[C@H]1CC[C@@H](C)CC1 (relative stereo) [Example 197, N-(cis-1-(cyclopropylcarbonyl)-2-(((cis-4-methylcyclohexyl)oxy)methyl)piperidin-3-yl)methanesulfonamide] |  | 90
CC(=O)N1CCC[C@H](NS(C)(=O)=O)[C@@H]1CO[C@H]1CC[C@@H](c2cccc(C(F)(F)F)c2)CC1 (relative stereo) [Example 204, N-(cis-1-acetyl-2-(((cis-4-(3-(trifluoromethyl)phenyl)cyclohexyl)oxy)methyl)piperidin-3-yl)methanesulfonamide] | 710 | 102
CCNC(=O)N1CCC[C@H](NS(C)(=O)=O)[C@@H]1CO[C@H]1CC[C@@H](c2cccc(C(F)(F)F)c2)CC1 (relative stereo) [Example 207, cis-N-ethyl-3-((methylsulfonyl)amino)-2-(((cis-4-(3-(trifluoromethyl)phenyl)cyclohexyl)oxy)methyl)piperidine-1-carboxamide] | 26 | 110
CS(=O)(=O)N[C@H]1CCCN(C(=O)C2CCCCC2)[C@H]1COC1CCN(c2ncccn2)CC1 (relative stereo) [Example 208, N-(cis-1-(cyclohexylcarbonyl)-2-(((1-(pyrimidin-2-yl)piperidin-4-yl)oxy)methyl)piperidin-3-yl)methanesulfonamide] | 940 | 93
CS(=O)(=O)N[C@H]1CCCN(C(=O)C2CC2)[C@H]1COC1CCN(c2ncccn2)CC1(F)F (relative stereo) [Example 211, N-(cis-1-(cyclopropylcarbonyl)-2-(((3,3-difluoro-1-(pyrimidin-2-yl)piperidin-4-yl)oxy)methyl)piperidin-3-yl)methanesulfonamide] | 1100 | 94
CS(=O)(=O)N[C@H]1CCCN(C(=O)C2CC2)[C@H]1COC1CCN(c2cc(F)ccc2Cl)CC1 (relative stereo) [Example 212, N-(cis-2-(((1-(2-chloro-5-fluorophenyl)piperidin-4-yl)oxy)methyl)-1-(cyclopropylcarbonyl)piperidin-3-yl)methanesulfonamide] | 2200 | 89
CC(=O)N1CCC[C@H](NS(C)(=O)=O)[C@@H]1COC1CCC(F)(c2cccc(F)c2)CC1 (relative stereo) [Example 216, N-(cis-1-acetyl-2-(((4-fluoro-4-(3-fluorophenyl)cyclohexyl)oxy)methyl)piperidin-3-yl)methanesulfonamide] | 210 | 105

More lines, in order of falling EC50, values ahead:

EC50 [nM] | Emax [%] | Compound
3600 | 86 | CC1(C)CCC(C(=O)N2CCC[C@H](NS(C)(=O)=O)[C@@H]2COC2CCN(c3ncccn3)CC2)CC1 (relative stereo) [Example 210, N-(cis-1-((4,4-dimethylcyclohexyl)carbonyl)-2-(((1-(pyrimidin-2-yl)piperidin-4-yl)oxy)methyl)piperidin-3-yl)methanesulfonamide]
2400 | 83 | COC(=O)N1CCC[C@H](NS(C)(=O)=O)[C@@H]1COC1CCN(c2ccccc2Cl)CC1 (relative stereo) [Example 167, methyl cis-2-(((1-(2-chlorophenyl)piperidin-4-yl)oxy)methyl)-3-((methylsulfonyl)amino)piperidine-1-carboxylate]
2000 | 92 | CS(=O)(=O)N[C@H]1CCCN(C(=O)C2CC2)[C@H]1COC1CCN(c2ccccc2Cl)CC1 (relative stereo) [Example 201, N-(cis-2-(((1-(2-chlorophenyl)piperidin-4-yl)oxy)methyl)-1-(cyclopropylcarbonyl)piperidin-3-yl)methanesulfonamide]
1900 | 89 | CS(=O)(=O)N[C@H]1CCCN(C(=O)C2CC2)[C@H]1COC1CCN(c2cccc(F)c2Cl)CC1 (relative stereo) [Example 209, N-(cis-2-(((1-(2-chloro-3-fluorophenyl)piperidin-4-yl)oxy)methyl)-1-(cyclopropylcarbonyl)piperidin-3-yl)methanesulfonamide]
1600 | 83 | CC(=O)N1CCC[C@H](NS(C)(=O)=O)[C@@H]1CO[C@H]1CC[C@@H](c2ccn(C)n2)CC1 (relative stereo) [Example 158, N-(cis-1-acetyl-2-(((cis-4-(1-methyl-1H-pyrazol-3-yl)cyclohexyl)oxy)methyl)piperidin-3-yl)methanesulfonamide]
300 | 88 | CS(=O)(=O)N[C@H]1CCCN(C(=O)C2CC2)[C@H]1CO[C@H]1C[C@@H](c2ccccc2)C1 (relative stereo) [Example 193, N-(cis-1-(cyclopropylcarbonyl)-2-(((cis-3-phenylcyclobutyl)oxy)methyl)piperidin-3-yl)methanesulfonamide]
78 | 88 | CC(C)(O)C(=O)N1CCC[C@H](NS(C)(=O)=O)[C@@H]1CO[C@H]1CC[C@@H](c2ccccc2)CC1 (relative stereo) [Example 189, N-(cis-1-(2-hydroxy-2-methylpropanoyl)-2-(((cis-4-phenylcyclohexyl)oxy)methyl)piperidin-3-yl)methanesulfonamide]
56 | 92 | CC(=O)N1CCC[C@H](NS(C)(=O)=O)[C@@H]1CO[C@H]1CC[C@@H](c2cc(F)ccc2F)CC1 (relative stereo) [Example 198, N-(cis-1-acetyl-2-(((cis-4-(2,5-difluorophenyl)cyclohexyl)oxy)methyl)piperidin-3-yl)methanesulfonamide]
45 | 98 | CS(=O)(=O)N[C@H]1CCCN(C(=O)C2(O)CC2)[C@H]1CO[C@H]1CC[C@@H](c2ccccc2)CC1 (relative stereo) [Example 176, N-(cis-1-((1-hydroxycyclopropyl)carbonyl)-2-(((cis-4-phenylcyclohexyl)oxy)methyl)piperidin-3-yl)methanesulfonamide]
19 | 97 | CS(=O)(=O)N[C@H]1CCCN(C(=O)C2CC2)[C@H]1COC1CCN(c2ncc(F)cn2)CC1 (relative stereo) [Example 202, N-(cis-1-(cyclopropylcarbonyl)-2-(((1-(5-fluoropyrimidin-2-yl)piperidin-4-yl)oxy)methyl)piperidin-3-yl)methanesulfonamide]
